Test results: ChEMBL document CHEMBL3044615, “Synthesis and in vitro antimicrobial activity of benzo[b][1,4]thiazin-3(4H)-ones via smiles rearrangement” (2011)
Converted amounts (≈) assume the structure as drawn. The source made the active and inactive calls. The calls are words filed in the database; no cut-off is given here.

Experiments:
Assay type in all cases: functional
Saccharomyces cerevisiae = test: Microbiostatic activity against Saccharomyces cerevisiae ATCC 74212 after 48 hr by two fold microdilution technique
Candida albicans = test: Microbiostatic activity against Candida albicans ATCC 76615 after 48 hr by two-fold microdilution technique
Pseudomonas aeruginosa = test: Antibacterial activity against Pseudomonas aeruginosa ATCC 27853 after 24 hr by two-fold microdilution technique; conditions: ATCC 27853, 24 h
Proteus vulgaris = test: Antibacterial activity against Proteus vulgaris ATCC 6896 after 24 hr by two-fold microdilution technique; conditions: ATCC 6896, 24 h
Escherichia coli = test: Antibacterial activity against Escherichia coli ATCC 25922 after 24 hr by two-fold microdilution technique; conditions: ATCC 25922, 24 h
Micrococcus luteus = test: Antibacterial activity against Micrococcus luteus NCTC 2665 after 24 hr by two-fold microdilution technique; conditions: NCTC 2665, 24 h
Bacillus subtilis = test: Antibacterial activity against Bacillus subtilis ATCC 6633 after 24 hr by two fold microdilution technique; conditions: ATCC 6633, 24 h
Staphylococcus aureus = test: Antibacterial activity against Staphylococcus aureus ATCC 25923 after 24 hr by two fold microdilution technique; conditions: ATCC 25923, 24 h

| Structure (SMILES) | MIC (Saccharomyces cerevisiae) | MIC (Candida albicans) | MIC (Pseudomonas aeruginosa) [µg/mL] | MIC (Proteus vulgaris) [µg/mL] | MIC (Escherichia coli) [µg/mL] | MIC (Micrococcus luteus) [µg/mL] | MIC (Bacillus subtilis) [µg/mL] | MIC (Staphylococcus aureus) [µg/mL] | MIC (Saccharomyces cerevisiae; ATCC 74212, 48 h) [µg/mL] | MIC (Candida albicans; ATCC 76615, 48 h) [µg/mL] |
| --- | --- | --- | --- | --- | --- | --- | --- | --- | --- | --- |
| CC(C)(O/N=C(\C(=O)N[C@@H]1C(=O)N2C(C(=O)[O-])=C(C[n+]3ccccc3)CS[C@H]12)c1csc(N)n1)C(=O)O [CEFTAZIDIME] | inactive | inactive | 128 (≈ 234 µM) | 4 (≈ 7.32 µM) | 4 (≈ 7.32 µM) | 16 (≈ 29.3 µM) | 2 (≈ 3.66 µM) | 4 (≈ 7.32 µM) |  |  |
| CCCCCCN1C(=O)CSc2c(Cl)cccc21 |  |  | 32 (≈ 113 µM) | 16 (≈ 56.4 µM) | 32 (≈ 113 µM) | 32 (≈ 113 µM) | 16 (≈ 56.4 µM) | 32 (≈ 113 µM) | 64 (≈ 225 µM) | 64 (≈ 225 µM) |
| CN[C@@H]1[C@H](O[C@H]2[C@H](O[C@H]3[C@H](O)[C@@H](O)[C@H](N=C(N)N)[C@@H](O)[C@@H]3N=C(N)N)O[C@@H](C)[C@]2(O)C=O)O[C@@H](CO)[C@H](O)[C@H]1O [STREPTOMYCIN] | inactive | inactive | 2 (≈ 3.44 µM) | 4 (≈ 6.88 µM) | 4 (≈ 6.88 µM) | 8 (≈ 13.8 µM) | 32 (≈ 55 µM) | 2 (≈ 3.44 µM) |  |  |
| O=C1CSc2cccc(Cl)c2N1C1CCCCC1 |  |  | 32 (≈ 114 µM) | 32 (≈ 114 µM) | 32 (≈ 114 µM) | 16 (≈ 56.8 µM) | 32 (≈ 114 µM) | 16 (≈ 56.8 µM) | 128 (≈ 454 µM) | 64 (≈ 227 µM) |
| CCCCCCN1C(=O)CSc2cccc(Cl)c21 | inactive | inactive | 64 (≈ 225 µM) | 32 (≈ 113 µM) | 32 (≈ 113 µM) | 32 (≈ 113 µM) | 32 (≈ 113 µM) | 32 (≈ 113 µM) |  |  |
| O=C1CSc2cc(Cl)ccc2N1C1CCCCC1 |  |  | 32 (≈ 114 µM) | 32 (≈ 114 µM) | 32 (≈ 114 µM) | 16 (≈ 56.8 µM) | 32 (≈ 114 µM) | 16 (≈ 56.8 µM) | 128 (≈ 454 µM) | 64 (≈ 227 µM) |
| CCCCCCN1C(=O)CSc2ccc(Cl)cc21 | inactive | inactive | 64 (≈ 225 µM) | 32 (≈ 113 µM) | 32 (≈ 113 µM) | 16 (≈ 56.4 µM) | 32 (≈ 113 µM) | 32 (≈ 113 µM) |  |  |
| O=C1CSc2ccc(Cl)cc2N1C1CCCCC1 | inactive |  | 128 (≈ 454 µM) | 64 (≈ 227 µM) | 64 (≈ 227 µM) | 32 (≈ 114 µM) | 64 (≈ 227 µM) | 32 (≈ 114 µM) |  | 256 (≈ 908 µM) |
| O=C1CSc2cc(Cl)ccc2N1Cc1ccccc1 | inactive | inactive | 64 (≈ 221 µM) | 32 (≈ 110 µM) | 32 (≈ 110 µM) | 16 (≈ 55.2 µM) | 64 (≈ 221 µM) | 64 (≈ 221 µM) |  |  |
| O=C1CSc2c(Cl)cccc2N1CC1CCCO1 (stereo not given) |  |  | 128 (≈ 451 µM) | 64 (≈ 226 µM) | 64 (≈ 226 µM) | 32 (≈ 113 µM) | 16 (≈ 56.4 µM) | 32 (≈ 113 µM) | 128 (≈ 451 µM) | 128 (≈ 451 µM) |
| O=C1CSc2ccc(Cl)cc2N1Cc1ccccc1 |  |  | 32 (≈ 110 µM) | 32 (≈ 110 µM) | 32 (≈ 110 µM) | 16 (≈ 55.2 µM) | 32 (≈ 110 µM) | 16 (≈ 55.2 µM) | 64 (≈ 221 µM) | 64 (≈ 221 µM) |
| O=C1CSc2cccc(Cl)c2N1CC1CCCO1 (stereo not given) |  |  | 64 (≈ 226 µM) | 32 (≈ 113 µM) | 32 (≈ 113 µM) | 32 (≈ 113 µM) | 32 (≈ 113 µM) | 32 (≈ 113 µM) | 128 (≈ 451 µM) | 64 (≈ 226 µM) |
| O=C1CSc2cc(Cl)ccc2N1CC1CCCO1 (stereo not given) |  |  | 64 (≈ 226 µM) | 32 (≈ 113 µM) | 32 (≈ 113 µM) | 16 (≈ 56.4 µM) | 64 (≈ 226 µM) | 32 (≈ 113 µM) | 128 (≈ 451 µM) | 128 (≈ 451 µM) |
| O=C1CSc2c(Cl)cccc2N1C1CCCCC1 |  |  | 64 (≈ 227 µM) | 32 (≈ 114 µM) | 32 (≈ 114 µM) | 32 (≈ 114 µM) | 32 (≈ 114 µM) | 16 (≈ 56.8 µM) | 64 (≈ 227 µM) | 128 (≈ 454 µM) |
| O=C1CSc2cccc(Cl)c2N1Cc1ccccc1 |  | inactive | 32 (≈ 110 µM) | 64 (≈ 221 µM) | 16 (≈ 55.2 µM) | 32 (≈ 110 µM) | 32 (≈ 110 µM) | 32 (≈ 110 µM) | 128 (≈ 442 µM) |  |
| CC1(C)S[C@@H]2[C@H](NC(=O)[C@H](N)c3ccccc3)C(=O)N2[C@H]1C(=O)O [AMPICILLIN] | inactive | inactive | 128 (≈ 366 µM) | 16 (≈ 45.8 µM) | 16 (≈ 45.8 µM) | 16 (≈ 45.8 µM) | 1 (≈ 2.86 µM) | 2 (≈ 5.72 µM) |  |  |
| Clc1ccccc1C(c1ccccc1)(c1ccccc1)n1ccnc1 [CLOTRIMAZOLE] |  |  | 512 (≈ 1480 µM) | 512 (≈ 1480 µM) | 512 (≈ 1480 µM) | 512 (≈ 1480 µM) | 512 (≈ 1480 µM) | 512 (≈ 1480 µM) | 4 (≈ 11.6 µM) | 2 (≈ 5.8 µM) |
| O=C1CSc2ccc(Cl)cc2N1CC1CCCO1 (stereo not given) |  |  | 128 (≈ 451 µM) | 64 (≈ 226 µM) | 64 (≈ 226 µM) | 32 (≈ 113 µM) | 32 (≈ 113 µM) | 64 (≈ 226 µM) | 128 (≈ 451 µM) | 64 (≈ 226 µM) |
| CCCCCCN1C(=O)CSc2cc(Cl)ccc21 |  |  | 64 (≈ 225 µM) | 64 (≈ 225 µM) | 32 (≈ 113 µM) | 64 (≈ 225 µM) | 32 (≈ 113 µM) | 32 (≈ 113 µM) | 256 (≈ 902 µM) | 128 (≈ 451 µM) |
| O=C1CSc2c(Cl)cccc2N1Cc1ccccc1 |  |  | 32 (≈ 110 µM) | 64 (≈ 221 µM) | 64 (≈ 221 µM) | 32 (≈ 110 µM) | 64 (≈ 221 µM) | 64 (≈ 221 µM) | 64 (≈ 221 µM) | 128 (≈ 442 µM) |
